Reference: ChEMBL document CHEMBL4177616, “Potent anti-melanogenic activity and favorable toxicity profile of selected 4-phenyl hydroxycoumarins in the zebrafish model and the computational molecular modeling studies” (Bioorg Med Chem, 2017)
The source made the active and inactive calls. The calls are words filed in the database; no cut-off is given here.

Experiments:
[1] = species on record: Danio rerio; assay: Toxicity in wild type zebrafish embryos assessed as eyes at 2500 ug/ml treated for 96 hrs post fertilization starting from 6 hrs post fertilization by inverted microscopic analysis relative to control; format: organism-based; conditions: in vivo
[2] = species on record: Danio rerio; assay: Anti-melanogenic activity in wild type zebrafish 24 hrs post fertilization embryos assessed as decrease in body pigmentation at 100 ug/ml after 48 hrs; format: functional, organism-based
[3] = system: Danio rerio; assay: Toxicity in wild type zebrafish embryos assessed as pericardial edema at 100 ug/ml treated for 96 hrs post fertilization starting from 6 hrs post fertilization by inverted microscopic analysis relative to control; format: organism-based; conditions: in vivo
[4] = species on record: Danio rerio; assay: Toxicity in wild type zebrafish embryos assessed as blood circulation at 2500 ug/ml treated for 96 hrs post fertilization starting from 6 hrs post fertilization by inverted microscopic analysis relative to control; format: organism-based; conditions: in vivo
[5] = species on record: Danio rerio; assay: Toxicity in wild type zebrafish embryos assessed as normal embryo at 100 ug/ml treated for 96 hrs post fertilization starting from 6 hrs post fertilization by inverted microscopic analysis relative to control; format: organism-based; conditions: in vivo
[6] = system: Danio rerio; assay: Toxicity in wild type zebrafish embryos assessed as pericardial edema at 2500 ug/ml treated for 96 hrs post fertilization starting from 6 hrs post fertilization by inverted microscopic analysis relative to control; format: organism-based; conditions: in vivo
[7] = species on record: Danio rerio; assay: Toxicity in wild type zebrafish embryos assessed as unhatched embryo at 1000 ug/ml treated for 96 hrs post fertilization starting from 6 hrs post fertilization by inverted microscopic analysis relative to control; format: organism-based; conditions: in vivo
[8] = species on record: Danio rerio; assay: Anti-melanogenic activity in wild type zebrafish 24 hrs post fertilization embryos assessed as decrease in body pigmentation at >= 500 ug/ml after 48 hrs; format: functional, organism-based
[9] = species on record: Danio rerio; assay: Toxicity in wild type zebrafish embryos assessed as head malformation at 500 ug/ml treated for 96 hrs post fertilization starting from 6 hrs post fertilization by inverted microscopic analysis relative to control; format: organism-based; conditions: in vivo
[10] = species on record: Danio rerio; assay: Toxicity in wild type zebrafish embryos assessed as unhatched embryo at 2500 ug/ml treated for 96 hrs post fertilization starting from 6 hrs post fertilization by inverted microscopic analysis relative to control; format: organism-based; conditions: in vivo
[11] = species on record: Danio rerio; assay: Toxicity in wild type zebrafish embryos assessed as otoliths at 2000 ug/ml treated for 96 hrs post fertilization starting from 6 hrs post fertilization by inverted microscopic analysis relative to control; format: organism-based; conditions: in vivo
[12] = species on record: Danio rerio; assay: Toxicity in wild type zebrafish embryos assessed as head malformation at 100 ug/ml treated for 96 hrs post fertilization starting from 6 hrs post fertilization by inverted microscopic analysis relative to control; format: organism-based; conditions: in vivo
[13] = species on record: Danio rerio; assay: Toxicity in wild type zebrafish embryos assessed as heart beat at 1000 ug/ml treated for 96 hrs post fertilization starting from 6 hrs post fertilization by inverted microscopic analysis relative to control; format: organism-based; conditions: in vivo
[14] = species on record: Danio rerio; assay: Toxicity in wild type zebrafish embryos assessed as otoliths at 1000 ug/ml treated for 96 hrs post fertilization starting from 6 hrs post fertilization by inverted microscopic analysis relative to control; format: organism-based; conditions: in vivo
[15] = species on record: Danio rerio; assay: Toxicity in wild type zebrafish embryos assessed as skeletal deformities at 500 ug/ml treated for 96 hrs post fertilization starting from 6 hrs post fertilization by inverted microscopic analysis relative to control; format: organism-based; conditions: in vivo
[16] = species on record: Danio rerio; assay: Toxicity in wild type zebrafish embryos assessed as blood circulation at 2000 ug/ml treated for 96 hrs post fertilization starting from 6 hrs post fertilization by inverted microscopic analysis relative to control; format: organism-based; conditions: in vivo
[17] = species on record: Danio rerio; assay: Toxicity in wild type zebrafish embryos assessed as growth retardation at 2000 ug/ml treated for 96 hrs post fertilization starting from 6 hrs post fertilization by inverted microscopic analysis relative to control; format: organism-based; conditions: in vivo
[18] = Toxicity in wild type zebrafish embryos assessed as dead embryo at 2000 ug/ml treated for 96 hrs post fertilization starting from 6 hrs post fertilization by inverted microscopic analysis relative to control; format: organism-based, Danio rerio; conditions: in vivo, read-out: Activity
[19] = species on record: Danio rerio; assay: Toxicity in wild type zebrafish embryos assessed as heart beat at 2500 ug/ml treated for 96 hrs post fertilization starting from 6 hrs post fertilization by inverted microscopic analysis relative to control; format: organism-based; conditions: in vivo
[20] = species on record: Danio rerio; assay: Toxicity in wild type zebrafish embryos assessed as blood circulation at 500 ug/ml treated for 96 hrs post fertilization starting from 6 hrs post fertilization by inverted microscopic analysis relative to control; format: organism-based; conditions: in vivo
[21] = species on record: Danio rerio; assay: Toxicity in wild type zebrafish embryos assessed as eyes at 100 ug/ml treated for 96 hrs post fertilization starting from 6 hrs post fertilization by inverted microscopic analysis relative to control; format: organism-based; conditions: in vivo
[22] = species on record: Danio rerio; assay: Toxicity in wild type zebrafish embryos assessed as growth retardation at 500 ug/ml treated for 96 hrs post fertilization starting from 6 hrs post fertilization by inverted microscopic analysis relative to control; format: organism-based; conditions: in vivo
[23] = species on record: Danio rerio; assay: Toxicity in wild type zebrafish embryos assessed as skeletal deformities at 2500 ug/ml treated for 96 hrs post fertilization starting from 6 hrs post fertilization by inverted microscopic analysis relative to control; format: organism-based; conditions: in vivo
[24] = Toxicity in wild type zebrafish embryos assessed as dead embryo at 1000 ug/ml treated for 96 hrs post fertilization starting from 6 hrs post fertilization by inverted microscopic analysis relative to control; format: organism-based, Danio rerio; conditions: in vivo, read-out: Activity
[25] = species on record: Danio rerio; assay: Toxicity in wild type zebrafish embryos assessed as unhatched embryo at 500 ug/ml treated for 96 hrs post fertilization starting from 6 hrs post fertilization by inverted microscopic analysis relative to control; format: organism-based; conditions: in vivo
[26] = species on record: Danio rerio; assay: Toxicity in wild type zebrafish embryos assessed as eyes at 1000 ug/ml treated for 96 hrs post fertilization starting from 6 hrs post fertilization by inverted microscopic analysis relative to control; format: organism-based; conditions: in vivo
[27] = species on record: Danio rerio; assay: Toxicity in wild type zebrafish embryos assessed as unhatched embryo at 2000 ug/ml treated for 96 hrs post fertilization starting from 6 hrs post fertilization by inverted microscopic analysis relative to control; format: organism-based; conditions: in vivo
[28] = species on record: Danio rerio; assay: Toxicity in wild type zebrafish embryos assessed as teratogenic embryo at 100 ug/ml treated for 96 hrs post fertilization starting from 6 hrs post fertilization by inverted microscopic analysis relative to control; format: organism-based; conditions: in vivo
[29] = species on record: Danio rerio; assay: Toxicity in wild type zebrafish embryos assessed as teratogenic embryo at 2000 ug/ml treated for 96 hrs post fertilization starting from 6 hrs post fertilization by inverted microscopic analysis relative to control; format: organism-based; conditions: in vivo
[30] = species on record: Danio rerio; assay: Toxicity in wild type zebrafish embryos assessed as otoliths at 2500 ug/ml treated for 96 hrs post fertilization starting from 6 hrs post fertilization by inverted microscopic analysis relative to control; format: organism-based; conditions: in vivo
[31] = system: Danio rerio; assay: Toxicity in wild type zebrafish embryos assessed as yolk edema at 500 ug/ml treated for 96 hrs post fertilization starting from 6 hrs post fertilization by inverted microscopic analysis relative to control; format: organism-based; conditions: in vivo
[32] = species on record: Danio rerio; assay: Toxicity in wild type zebrafish embryos assessed as normal embryo at 500 ug/ml treated for 96 hrs post fertilization starting from 6 hrs post fertilization by inverted microscopic analysis relative to control; format: organism-based; conditions: in vivo
[33] = system: Danio rerio; assay: Toxicity in wild type zebrafish embryos assessed as yolk edema at 2000 ug/ml treated for 96 hrs post fertilization starting from 6 hrs post fertilization by inverted microscopic analysis relative to control; format: organism-based; conditions: in vivo
[34] = species on record: Danio rerio; assay: Toxicity in wild type zebrafish embryos assessed as blood circulation at 100 ug/ml treated for 96 hrs post fertilization starting from 6 hrs post fertilization by inverted microscopic analysis relative to control; format: organism-based; conditions: in vivo
[35] = system: Neutrophil; assay: Anti-melanogenic activity in mpx:GFP transgenic zebrafish 24 hrs post fertilization embryo neutrophils assessed as decrease in pigmentation at 2 to 2.5 mg/ml; format: functional, cell-based; conditions: Danio rerio
[36] = system: Neutrophil; assay: Cytotoxicity against mpx:GFP transgenic zebrafish 24 hrs post fertilization embryo neutrophils assessed as loss in neutrophil at 2 to 2.5 mg/ml; format: cell-based, Danio rerio
[37] = in vivo; conditions: zebrafish
Description: Toxicity in wild type zebrafish embryos assessed as dead embryo at 12.5 ug/ml treated for 96 hrs post fertilization starting from 6 hrs post fertilization by inverted microscopic analysis relative to control

Structure (SMILES): O=c1cc(CO)occ1O [KOJIC ACID]
- Activity [1]: 0%
- Activity [2]: inactive
- Activity [3]: 35%
- Activity [4]: 10%
- Activity [5]: 65%
- Activity [6]: 100%
- Activity [7]: 0%
- Activity [8]: Active
- Activity [9]: 0%
- Activity [10]: 0%
- Activity [11]: 31.67%
- Activity [12]: 0%
- Activity [13]: 83.33%
- Activity [14]: 0%
- Activity [15]: 0%
- Activity [16]: 6.67%
- Activity [17]: 3.33%
- mortality at 2000 ug/ml [18]: 0%
- Activity [19]: 100%
- Activity [20]: 0%
- Activity [21]: 0%
- Activity [22]: 0%
- Activity [23]: 98.33%
- mortality at 1000 ug/ml [24]: 0%
- Activity [25]: 0%
- Activity [26]: 0%
- Activity [27]: 0%
- Activity [28]: 35%
- Activity [29]: 100%
- Activity [30]: 86.67%
- Activity [31]: 0%
- Activity [32]: 13.33%
- Activity [33]: 0%
- Activity [34]: 0%
- Activity [35]: Active
- Activity [36]: Toxic

Structure (SMILES): Oc1ccc(O)cc1 [HYDROQUINONE]
- mortality at 12.5 ug/ml [37]: 66.7%
